Tests used:
telomerase = biological target: T1, telomerase (Homo sapiens, UniProt O14746); assay: Telomerase activity by TRAP assay in treated HCT116 cells; type: cell-based; conditions: HCT116 cells treated with 1 and 10 μM every 3 days for 12 weeks
T1 construct: endogenous in cells; host or cells: HCT116 human colon cancer cells (lysate)
Procedure: Telomerase activity was measured by the TRAP assay (Telomeric Repeat Amplification Protocol as described in Shay J. W. and Bacchetti S., “A survey of telomerase activity in human cancer,” European Journal of Cancer 1997; 33:787-91.). Briefly, HCT116 cells were treated with 1 or 10 μM 6-thio-dG for 1-12 weeks. 1×10^5 cells were collected and lysed with ice-cold NP-40 lysis buffer (10 mM Tris-HCl pH 8.0, 1.0 mM MgCl2, 1 mM EDTA, 1% NP-40, 0.25 mM sodium deoxycholate, 10% glycerol, 150 mM NaCl, 5 mM β-mercaptoethanol) for 30 min. One microliter cellular lysate for 2500 cells was used for each reaction. Hela cells were used as a positive control and lysis buffer was used as a negative control. Samples were prepared and then the telomerase extension products were amplified using PCR (95° C. for 5 min to inactivate telomerase, then 95° C. for 30 sec, 52° C. for 30 sec, 72° C. for 30 sec; 24 cycles). Samples were run on a 10% non-denaturating acrylamide gel and visualized using a Typhoon PhosphorImager scanner system (Molecular Dynamics, GE Healthcare, Piscataway, NJ) that is capable of reading Cy5 fluorescence.

[1] = test system: HCC4017 paclitaxel/carboplatin resistant cell line; assay: 6-thio-dG on HCC4017 paclitaxel/carboplatin resistant line; type: cell-based, human; conditions: 1, 3, 10 μM
Procedure: (§1) The resulting resistant lines and their parents were tested for the effect of 6-thio-dG at 1, 3, and 10 μM concentrations.

[2] = test system: HCEC1 normal colonic cell line; assay: CellTitreGlo survival, 7 days, HCEC1; type: cell-based; conditions: Homo sapiens, 168 h
Procedure: Four different cell lines were treated with nine different doses of 6-thio-dG for 7 days. HCT116 colon cancer cell line (FIG. 9A), HCEC1 normal colonic cell line (FIG. 9C), A549 non-small cell lung cancer cell line (FIG. 9B), and BJ normal fibroblast cell line (FIG. 9D) were each treated. Survival fraction was measured by CellTitreGlo luminescent cell viability assay (Promega).

HCT116 sub clones = assay: 6-thio-dG on HCT116 sub clone cell lines, cell count; type: cell-based, human; conditions: for sensitivity (cell count): 3 μM for 4 weeks
Procedure: In a separate experiment, 31 sub clone cell lines were derived from HCT116 cells that had no prior treatment with 6-thio-dG. […] At the end of one week, a cell count was performed of treated cells and cell percentage calculated relative to control cell count (FIG. 22). […] Four of the sub clone cell lines were further studied for resistance to 6-thio-dG. […] HCT116 Control group represent the main population treated with DMSO:water for 1-4 weeks. At the end of 4 weeks a cell count was performed to quantify cell growth. […] (FIG. 23)

HCT116 cells [3] = assay: Tumor growth in xenograft animal model with HCT116 cells; type: in vivo, mice; conditions: 2 mg/kg IP every two days, 6 injections
Procedure: Doses of 2 mg/kg of 6-thio-dG and 2 mg/kg of 6-thio-G were IP injected every two days for a total of 6 injections into mice. DMSO injections were used for the control. The volume of the tumor was measured.

BJ-hTERT cells = assay: Telomere dysfunction induced foci (TIF) assay in BJ-hTERT cells; type: cell-based, human; conditions: 10 μM, after 48 hours
Procedure: TIFs were quantified using Imaris software.
Normal BJ cells and […] BJ-hTERT cells were seeded in chamber slides. Following cell attachment, 6-thio-dG (10 μM) and 6-thio-G (10 μM) were added to fresh medium of each cell type. […] A control was used for each cell type as well, where DMSO was added to fresh medium of each cell type. […] These include almost all human cancer cells and certain human diseases involving acute and chronic inflammation.

HCT116 cells [4] = test system: HCT116 cells
Procedure: Following the treatment cells were seeded at different densities and the cultured for 10 days.

H1819 = assay: 6-thio-dG on H1819 parental and paclitaxel/carboplatin resistant lines; type: cell-based, human; conditions: 1, 3, 10 μM
Procedure: as §1

H2073 = assay: NSCLC panel sensitivity to 6-thio-dG, H2073; type: cell-based; conditions: Homo sapiens, NCI-H2073
Text: Two isogenic pairs of NSCLC cell lines were studied for sensitization to 6-thio-dG treatment.

HCT116 cells [5] = conditions: 3 μM
Procedure: The TIF assay is based on the co-localization detection of DNA damage by an antibody against DNA damage markers such as gamma-H2AX and telomeres by the telomeric protein TRF2. Briefly, HCT116 cells were plated in 4-well chamber slides and after the cells attached to the surface, either 3 μM 6-thio-dG or 3 μM 6-thio-G was added to the medium at different time points (0, 30 min, 12 h, 24 h, 48 h, 72 h). Slides were rinsed once with PBS and fixed in 4% paraformaldehyde in PBS for 10 min. Then, cells were washed twice with PBS and permeabilized in 0.5% Nonidet-P40 in PBS, blocked with 0.5% Bovine Serum Albumin (BSA) and 0.2% fish gelatin in PBS for 30 min. gamma-H2AX (mouse) (Millipore, Billerica, MA) was diluted 1:1000 and TRF2 (rabbit) (Abcam, Cambridge, MA) was diluted 1:200 in blocking solution and this primary Ab mixture was incubated on cells for 2 h. After three washes with PBST (1×PBS in 0.1% Triton) and 3 washes with PBS, cells were incubated with Alexaflour 488 conjugated goat anti rabbit (1:500) (Invitrogen, Grand Island, NY) and Alexaflour 568 conjugated goat anti mouse (1:500) (Invitrogen) for 40 min, then washed six times with PBS. After drying, the slides were mounted with Vectashield mounting medium with DAPI (Vector Laboratories, Burlingame, CA). […] TIFs were quantified using Imaris software. […]

H2343 = assay: NSCLC panel sensitivity to 6-thio-dG, H2343; type: cell-based; conditions: Homo sapiens
Procedure: A panel of NSCLC cell lines was tested for sensitivity to 6-thio-dG by performing a cell count after 1 week treatment. Briefly, cells were treated with 3 μM 6-thio-dG every three days for 1 week. Viable cells were counted at the end of treatment. Each 6-thiodG treated cell line was normalized to its DMSO treated control. The results of the cell count are depicted in FIG. 12, with the various cell lines arranged in descending resistance to 6-thio-dG from left to right. […] The IC50 values for the whole panel of tested cells are depicted in FIG. 13. The IC50 values for tested cells are depicted as a column scatter graph in FIG. 14.

HCT116 cells [6] = conditions: 3 μM twice during one week
Procedure: Cancer HCT116 and normal BJ fibroblast cells were treated with 6-thio-dG (3 μM) and 6-thio-G (3 μM) twice during one week. Following one week of the treatment, cell morphology was monitored, and then the cells were collected and counted.

[7] = test system: paclitaxel/carboplatin resistant H1299; assay: 6-thio-dG on paclitaxel/carboplatin resistant H1299, cell count; type: cell-based, human; conditions: 1, 3, 10 μM every three days for one week
Procedure: A cell count was performed to measure cell growth/death.

H2882 = assay: GI 50 determination, H2882; type: cell-based; conditions: Homo sapiens, NCI-H2882
Procedure: Cells of each type listed in Table 2 were seeded in chamber slides.

T1 sequence (O14746 whole entry): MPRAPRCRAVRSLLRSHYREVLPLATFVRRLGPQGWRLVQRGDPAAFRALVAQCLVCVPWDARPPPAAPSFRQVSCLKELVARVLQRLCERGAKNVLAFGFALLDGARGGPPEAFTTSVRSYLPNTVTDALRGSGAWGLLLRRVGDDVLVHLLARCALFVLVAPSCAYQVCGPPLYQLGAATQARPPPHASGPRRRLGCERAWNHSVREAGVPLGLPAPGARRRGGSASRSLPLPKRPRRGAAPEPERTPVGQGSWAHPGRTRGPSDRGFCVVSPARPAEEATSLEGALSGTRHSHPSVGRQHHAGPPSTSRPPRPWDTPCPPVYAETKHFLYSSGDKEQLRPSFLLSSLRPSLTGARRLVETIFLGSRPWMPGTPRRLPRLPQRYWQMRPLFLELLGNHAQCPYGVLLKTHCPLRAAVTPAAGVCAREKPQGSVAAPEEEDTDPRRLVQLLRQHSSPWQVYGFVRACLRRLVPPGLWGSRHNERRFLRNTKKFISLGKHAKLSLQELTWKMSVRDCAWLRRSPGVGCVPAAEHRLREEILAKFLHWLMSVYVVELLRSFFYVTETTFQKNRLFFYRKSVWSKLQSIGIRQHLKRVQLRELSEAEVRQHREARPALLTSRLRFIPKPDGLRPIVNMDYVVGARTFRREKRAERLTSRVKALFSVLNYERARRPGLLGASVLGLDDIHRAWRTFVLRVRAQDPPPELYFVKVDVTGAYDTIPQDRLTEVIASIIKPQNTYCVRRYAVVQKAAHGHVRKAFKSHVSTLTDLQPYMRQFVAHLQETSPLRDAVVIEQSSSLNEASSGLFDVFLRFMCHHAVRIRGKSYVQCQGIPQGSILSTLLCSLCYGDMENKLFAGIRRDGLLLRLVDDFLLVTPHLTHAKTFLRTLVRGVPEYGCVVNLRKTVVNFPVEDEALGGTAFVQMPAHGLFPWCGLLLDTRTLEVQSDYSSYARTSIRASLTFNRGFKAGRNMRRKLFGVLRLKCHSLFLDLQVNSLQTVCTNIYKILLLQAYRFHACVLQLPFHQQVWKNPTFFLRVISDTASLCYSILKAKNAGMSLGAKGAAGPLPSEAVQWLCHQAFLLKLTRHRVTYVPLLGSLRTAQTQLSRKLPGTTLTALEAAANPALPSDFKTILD
T1 sequence (O60832 whole entry partner): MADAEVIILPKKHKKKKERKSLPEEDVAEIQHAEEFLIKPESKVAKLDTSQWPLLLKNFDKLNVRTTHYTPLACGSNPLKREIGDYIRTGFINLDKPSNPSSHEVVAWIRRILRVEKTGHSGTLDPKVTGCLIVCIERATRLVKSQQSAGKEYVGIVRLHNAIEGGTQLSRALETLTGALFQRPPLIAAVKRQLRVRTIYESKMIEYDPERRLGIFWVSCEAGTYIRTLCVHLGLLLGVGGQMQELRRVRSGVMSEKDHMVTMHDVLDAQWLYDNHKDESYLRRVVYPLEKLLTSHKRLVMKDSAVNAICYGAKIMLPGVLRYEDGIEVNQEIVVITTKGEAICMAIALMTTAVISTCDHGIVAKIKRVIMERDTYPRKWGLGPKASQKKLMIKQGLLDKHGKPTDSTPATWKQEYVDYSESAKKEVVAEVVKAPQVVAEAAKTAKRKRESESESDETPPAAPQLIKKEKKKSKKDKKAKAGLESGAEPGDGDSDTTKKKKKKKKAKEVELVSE
T1 sequence (Q9NY12 whole entry partner): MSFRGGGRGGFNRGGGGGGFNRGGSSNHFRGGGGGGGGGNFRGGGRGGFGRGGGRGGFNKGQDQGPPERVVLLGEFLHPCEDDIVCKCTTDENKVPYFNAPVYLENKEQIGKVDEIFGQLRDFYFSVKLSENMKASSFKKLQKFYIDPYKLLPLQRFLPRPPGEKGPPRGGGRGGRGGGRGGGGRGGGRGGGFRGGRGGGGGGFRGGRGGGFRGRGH
T1 sequence (Q9NX24 whole entry partner): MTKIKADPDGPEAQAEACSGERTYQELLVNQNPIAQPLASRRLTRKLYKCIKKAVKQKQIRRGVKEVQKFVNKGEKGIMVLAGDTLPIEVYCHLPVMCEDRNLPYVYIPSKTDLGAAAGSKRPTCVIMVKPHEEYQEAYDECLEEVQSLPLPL
T1 sequence (Q9NPE3 whole entry partner): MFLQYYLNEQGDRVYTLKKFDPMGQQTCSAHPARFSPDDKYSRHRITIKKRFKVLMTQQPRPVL
T1 sequence (Q9BUR4 whole entry partner): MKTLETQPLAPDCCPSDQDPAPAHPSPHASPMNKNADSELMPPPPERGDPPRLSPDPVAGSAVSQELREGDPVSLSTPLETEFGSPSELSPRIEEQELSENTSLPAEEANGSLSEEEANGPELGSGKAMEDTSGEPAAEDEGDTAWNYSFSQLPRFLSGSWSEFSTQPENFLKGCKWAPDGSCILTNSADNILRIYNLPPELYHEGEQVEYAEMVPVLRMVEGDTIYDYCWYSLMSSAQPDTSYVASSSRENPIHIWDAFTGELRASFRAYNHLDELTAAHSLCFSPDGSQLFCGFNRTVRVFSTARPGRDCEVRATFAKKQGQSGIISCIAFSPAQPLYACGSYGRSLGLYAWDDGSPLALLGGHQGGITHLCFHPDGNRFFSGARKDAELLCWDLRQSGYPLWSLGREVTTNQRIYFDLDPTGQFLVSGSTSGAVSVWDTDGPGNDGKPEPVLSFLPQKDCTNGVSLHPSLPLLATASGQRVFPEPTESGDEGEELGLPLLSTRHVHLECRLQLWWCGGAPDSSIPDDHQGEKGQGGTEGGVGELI

## Nc1nc2c(ncn2[C@H]2C[C@H](O)[C@@H](CO)O2)c(=S)[nH]1 [6-thio-dG, 6-thio-2′-deoxyguanosine]
telomerase
  inhibition of telomerase activity (TRAP): no inhibition of telomerase activity was observed
[1]
  sensitivity: still sensitive to 6-thio-dG
[2]
  IC50: > 100000 nM
HCT116 sub clones; HCT116 clone #5
  sensitivity (cell count): remained sensitive for the duration of the experiment
HCT116 sub clones; HCT116 clone #8, 3 μM every three days for one week
  sensitivity (cell count relative to control): became intrinsically resistant to 6-thio-dG treatment
HCT116 sub clones; HCT116 clone #8
  sensitivity (cell count): maintained resistance for the duration of the treatment
HCT116 sub clones; HCT116 clone #15
  sensitivity (cell count): remained sensitive for the duration of the experiment
HCT116 sub clones; HCT116 sub clone #31
  sensitivity (cell count): acquired resistance and by week 4 showed cell growth indistinguishable from controls
HCT116 cells [3]
  rate of tumor growth (tumor volume): rate of tumor growth was less
BJ-hTERT cells
  >4 TIFs per nucleus background subtracted: 14
HCT116 cells [4]; 3 μM, after 72 hours irradiated, cultured 10 days
  survival fraction: lower than cells treated with 6-thio-G
HCT116 cells [4]; cell titer glow luminescent assay
  cell viability: lower than cells treated with 6-thio-G
H1819
  sensitivity: resistant to 6-thio-dG
H2073
  IC50: > 700 nM
HCT116 cells [5]; after 72 h
  increase in telomeric DNA damage as compared to 6-thio-G: 2.8 fold
HCT116 cells [5]; compared to 6-thio-G
  genomic DNA damage: overall increase in genomic DNA damage
H2343
  IC50: 3000 to 7000 nM
HCT116 cells [6]
  cell death / cell count: death of the vast majority of HCT116 cells
[7]
  sensitivity (cell count): sensitive to all three concentrations
H2882
  GI50: 400 nM
